Data reported in patent publication US8734816B2, “Porous nanoparticle supported lipid bilayer nanostructures” (STC.UNM, priority 2009, dated 2014).
Where a name gives a salt, the structure may show the parent alone.

Key:
[1] = Lipid association with mesoporous silica nanoparticles; type: physicochemical; settings: <20 μg liposome per 0.5 mg silica particles; 5% DHPE-Texas Red label; neutral pH
Experimental: To measure the amount of lipid associated with silica nanoparticles as a function of lipid concentration, about 20 μL aliquots of 25 mg/mL silica nanoparticles were mixed with 1, 2, 3, 5, 7, 10, 20, and 30 μL of 2.5 mg/mL lipids. The lipids tested included DOPC, DOPS and DOTAP, all containing 5% DHPE-Texas Red labels. The mixtures were centrifuged. The Texas Red absorbance from the supernatant and the silica nanoparticles was measured.

[2] = Colloidal stability of the silica/lipid mixture as a function of lipid concentration (dynamic light scattering); type: physicochemical; settings: at low liposome contents
Experimental: Depending on the relative amount of liposome added, silica particles first aggregated at low lipid concentrations to form large aggregates, which disappeared upon adding more liposomes. […] Similar observations were also reported for polystyrene beads, where aggregation was attributed to liposome mediated nanoparticle assembly at low lipid concentrations. Therefore, to form supported bilayers with good colloidal stability, excess amount of liposomes (50 μg liposome per 0.5 mg silica) were used.

[3] = Quantification of calcein encapsulated / concentration estimation inside mesoporous silica nanoparticles; type: physicochemical; settings: supported bilayers of different lipids
Experimental: To prepare supported bilayers that encapsulate calcein, the silica nanoparticles were first mixed with 250 μM calcein and liposomes were subsequently added. The remaining procedures were the same as described above.
Mesoporous silica nanoparticles (about 50 mg, no FITC modification) were dispersed in 2 mL water. About 5 μL of 100 mM calcein was added so the final dye concentration was ˜250 μM. The solution was divided into 50 μL aliquots and equal volumes of liposomes of different compositions were mixed to form supported bilayers. The supported bilayers were centrifuged and washed three times with 200 μL of 0.25×PBS to remove free calcein. Finally, about 50 μL of 1% SDS buffer solution was added to the precipitated supported bilayers to disrupt the lipid bilayer and release the calcein dye. About 150 μL of 0.25×PBS was then added to make the final volume to be about 200 μL and the tubes were centrifuged at 15000 rpm for about 2 minutes to precipitate silica nanoparticles. About 10 μL from the supernatant was transferred into a quartz microcuvette with a path length of about 1 cm to measure the absorbance at a wavelength of about 500 nm, which is proportional to the amount of calcein dye retained in the mesoporous silica nanoparticle.
Because the volume of this final solution was about 200 μL, the retained calcein in silica was then about 9 nmol. […]

[4] = tested on: Chinese Hamster Ovary (CHO) cells; assay: Cellular uptake of supported bilayers (protocells); type: cell-based; settings: green fluorescence of cells
Experimental: Cell Culture: Chinese Hamster Ovary cells (CHO) were obtained from the American Type Culture Collection (ATCC) and maintained in K-12 media supplemented with about 10% fetal bovine serum, about 1% penicillin and about 1% streptomycin. The media were changed every two to three days and the cells were passaged by trypsinization. To prepare samples for confocal imaging, round glass cover slips were used for cell growth. The glass slides were treated with 0.1M KOH for at least 24 hours before use. Cells in the media were dropped onto the cover slips and the slips were kept in Petri dishes. The cells were kept in an incubator at 37° C. with 5% CO2 and 95% humidity. Cellular uptake of supported bilayers (protocells): about 1 mL of serum free media was warmed to about 37° C. and about 10 μL of the above prepared supported bilayers were added and vortexed. To study the uptake of supported bilayers by CHO cells, the cells were grown to ˜70% confluence. The old media was removed and fresh media with supported bilayers were introduced. The cells were incubated for about four hours at about 37° C. and free particles were washed away with PBS and media before imaging. Confocal fluorescence microscopy: A Bio-Rad Radiance 2100 confocal fluorescence microscope system was used for imaging cells. […]

SMILES | association of liposomes with silica nanoparticles [1] | average size of particles [2] | calcein encapsulation efficiency (comparison of lipids) [3] | uptake of calcein into CHO cells [4]
CCCCCCCC/C=C\CCCCCCCC(=O)OC[C@H](COP(=O)([O-])OCC[N+](C)(C)C)OC(=O)CCCCCCC/C=C\CCCCCCCC [DOPC, 1,2-Dioleoyl-sn-Glycero-3-Phosphocholine] | almost quantitatively associated | significant increase |  | 
CCCCCCCC/C=C\CCCCCCCC(=O)OC[C@H](COP(=O)(O)OC[C@H](N)C(=O)O)OC(=O)CCCCCCC/C=C\CCCCCCCC [DOPS, 1,2-Dioleoyl-sn-Glycero-3-[Phospho-L-Serine] (Sodium Salt)] | did not associate |  |  | 
CCCCCCCC/C=C\CCCCCCCC(=O)OCC(C[N+](C)(C)C)OC(=O)CCCCCCC/C=C\CCCCCCCC.[Cl-] (stereo not shown) [DOTAP, 1,2-Dioleoyl-3-Trimethylammonium-Propane (Chloride Salt)] | almost quantitatively associated | significant increase | highest | 
O=C(O)CN(CC(=O)O)Cc1cc2c(cc1O)Oc1cc(O)c(CN(CC(=O)O)CC(=O)O)cc1C21OC(=O)c2ccccc21 [calcein] |  |  |  | can not take
